Measurements as given in patent US20060223831A1, “Bromide and its crystal” (priority 2003, published 2006).

What was measured:
[1] = Evaluation of hygroscopic property (storage in humidity-adjusted desiccators); type: physicochemical; conditions: for Hygroscopic property: conclusion from storage at ca. 0 to 93% R.H.; for HPLC purity change / degradation due to storage: 7 days of storage, ca. 0 to 93% R.H.
Method: About 0.5 g of each of the α- form Crystals and β- form Crystals of the bromide obtained in Example 2 was put into a weighing bottle of known mass and, after precisely calculating its mass, preserved under the following storage condition at 25° C. to measure changes in the mass.
Storage condition: A desiccator adjusted to a humidity of about 0% R.H. (silica gel), 33% R.H. (saturated MgCl2.6H2O aqueous solution), 51% R.H. (saturated Ca(NO3)2 aqueous solution), 75% R.H. (saturated NaCl aqueous solution), or 93% R.H. (saturated KNO3 aqueous solution).
i) Moisture absorption (dehydrated amount): By taking out each sample after 7 days of the storage, the weight change was precisely measured and recorded to calculate amount of the absorbed moisture.
ii) Appearance verification: Appearance of the powder was verified with the naked eye and using a magnifying lens.
iii) Powder X-ray diffraction measurement: Powder X-ray diffraction patterns of samples before storage and after completion of the storage period were recorded by a powder X-ray diffraction device.
iv) HPLC purity: Detection of degraded products in the samples before storage and after completion of the storage period was carried out using HPLC to measure purity.
(HPLC conditions) Mobile phase: 0.1% trifluoroacetic acid aqueous solution/acetonitrile=9:2, column: TSKgel ODS 80TsQA, 4.6×150 mm, particle diameter 5 μm (mfd. by Tosoh), flow rate: 1 ml/min, column temperature: 40° C., detection: UV 260 nm

[2] = Stability test (40° C., 75% R.H., 3 months); type: physicochemical; conditions: for Storage stability: 3 months at 40° C. under a relative humidity of 75%
Method: Samples were stored under shade for 3 months in a constant temperature constant moisture vessel of 40° C. and 75% R.H. The purity of each sample before storage and after storage was measured using HPLC, and change of crystal form was measured by powder X-ray diffraction. In addition, as a comparative example, crystals of the chloride were stored for 3 months under the same conditions, and amount of an impurity a (a compound in which the imidazolium ring was ring-opened) was measured. [table]

[3] = cf. page 22 of WO 01/60803; cited from earlier work
[4] = Water absorption/desorption behavior (moisture equilibrium measuring device SGA-X100); type: physicochemical
Method: Water absorption/desorption behavior of the bromide (β- form Crystal) and the chloride obtained in Reference Example as a comparative compound was measured using a moisture equilibrium measuring device SGA-X100 (VTI) under conditions of temperature: 25° C., measuring range: relative humidity of from 5 to 95%, and measuring interval: 5%.

[5] = system: tumor; conditions: cf. page 22 of WO 01/60803; cited from earlier work
[6] = after storage, 3 months, 40° C., 75% R.H., under shade
[7] = 93% R.H. storage, 25° C., 7 days
[8] = other conditions (ca. 0 to 75% R.H.), 25° C., 7 days
[9] = all conditions (ca. 0 to 93% R.H.), 25° C., 7 days

COCCn1c2c([n+](Cc3cnccn3)c1C)C(=O)c1ccccc1C2=O.[Br-] [bromide, 1-(2-methoxyethyl)-2-methyl-4,9-dioxo-3-(pyrazin-2-ylmethyl)-4,9-dihydro-1H-naphtho[2,3-d]imidazol-3-ium bromide]
Hygroscopic property ([1]; 25° C.): no hygroscopic property

COCCn1c2c([n+](Cc3cnccn3)c1C)C(=O)c1ccccc1C2=O [chloride, 1-(2-methoxyethyl)-2-methyl-4,9-dioxo-3-(pyrazin-2-ylmethyl)-4,9-dihydro-1H-naphtho[2,3-d]imidazol-3-ium chloride]
Storage stability [2]: low | Impurity a (%) (imidazolium ring-opened compound) [2, 6]: 2.45% | Impurity a (%) (imidazolium ring-opened compound) ([2]; before storage): 0.64% | toxicity [3]: low | Weight gain on forming monohydrate ([4]; 25° C., 65% R.H. to 80% R.H.): 4.3% | Relative humidity causing deliquescence ([4]; 25° C., absorption): ≥ 85 % R.H. | Relative humidity below which hydrate returned to anhydride ([4]; 25° C., at the time of drying, hydration state stable up to 25% R.H.): < 25 % R.H. | Heating temperature returning hydrate to anhydride ([4]; slight heating): ≥ 25 °C | in vivo tumor growth inhibitory activity [5]: good

COCCn1c2c([n+](Cc3cnccn3)c1C)C(=O)c1ccccc1C2=O.[Br-] [α-form Crystal, 1-(2-methoxyethyl)-2-methyl-4,9-dioxo-3-(pyrazin-2-ylmethyl)-4,9-dihydro-1H-naphtho[2,3-d]imidazol-3-ium bromide]
Storage stability [2]: degradation due to the storage was not observed | Storage stability ([2]; listed as α- form Crystals): stable | HPLC purity (%) [2, 6]: 99.92% | Powder X-ray diffraction pattern [2, 6]: β-form | HPLC purity (%) ([2]; before storage): 99.91% | Powder X-ray diffraction pattern ([2]; before storage): α-form | Weight change (%) ([1]; 33% R.H., 25° C., 7 days, listed as α-form Crystals): −0.02% | HPLC purity (%) ([1]; 33% R.H., 25° C., after 7 days of storage, listed as α-form Crystals): 99.89% | Weight change (%) ([1]; 51% R.H., 25° C., 7 days, listed as α-form Crystals): −0.04% | HPLC purity (%) ([1]; 51% R.H., 25° C., after 7 days of storage, listed as α-form Crystals): 99.89% | Weight change (%) ([1]; 75% R.H., 25° C., 7 days, listed as α-form Crystals): 0.13% | HPLC purity (%) ([1]; 75% R.H., 25° C., after 7 days of storage, listed as α-form Crystals): 99.88% | Appearance verification [1, 7]: change from reddish yellow to yellow | Powder X-ray diffraction pattern after storage [1, 7]: transitioned to β- form Crystals | Weight loss [1, 7]: About 1% | Weight change (%) ([1]; 93% R.H., 25° C., 7 days, listed as α-form Crystals): −0.94% | HPLC purity (%) ([1]; 93% R.H., 25° C., after 7 days of storage, listed as α-form Crystals): 99.89% | HPLC purity change / degradation due to storage ([1]; 25° C.): the purity was not decreased | HPLC purity (%) ([1]; before storage, listed as α-form Crystals): 99.93% | Weight change (%) ([1]; ca. 0% R.H. (silica gel), 25° C., 7 days, listed as α-form Crystals): −0.10% | HPLC purity (%) ([1]; ca. 0% R.H., 25° C., after 7 days of storage, listed as α-form Crystals): 99.72% | Hygroscopic property ([1]; 25° C.): no hygroscopic property | Appearance verification [1, 8]: No changes were found | Powder X-ray diffraction pattern after storage [1, 8]: No changes were found

COCCn1c2c([n+](Cc3cnccn3)c1C)C(=O)c1ccccc1C2=O.[Br-] [β-form Crystal, 1-(2-methoxyethyl)-2-methyl-4,9-dioxo-3-(pyrazin-2-ylmethyl)-4,9-dihydro-1H-naphtho[2,3-d]imidazol-3-ium bromide]
Storage stability [2]: very stable physically and chemically | Storage stability ([2]; listed as β- form Crystals): stable | HPLC purity (%) [2, 6]: 99.71% | Powder X-ray diffraction pattern [2, 6]: β-form | HPLC purity (%) ([2]; before storage): 99.71% | Powder X-ray diffraction pattern ([2]; before storage): β-form | Weight change (%) ([1]; 33% R.H., 25° C., 7 days, listed as β-form Crystals): 0.02% | HPLC purity (%) ([1]; 33% R.H., 25° C., after 7 days of storage, listed as β-form Crystals): 99.73% | Weight change (%) ([1]; 51% R.H., 25° C., 7 days, listed as β-form Crystals): 0.04% | HPLC purity (%) ([1]; 51% R.H., 25° C., after 7 days of storage, listed as β-form Crystals): 99.72% | Weight change (%) ([1]; 75% R.H., 25° C., 7 days, listed as β-form Crystals): 0.06% | HPLC purity (%) ([1]; 75% R.H., 25° C., after 7 days of storage, listed as β-form Crystals): 99.71% | Weight change (%) ([1]; 93% R.H., 25° C., 7 days, listed as β-form Crystals): 0.08% | HPLC purity (%) ([1]; 93% R.H., 25° C., after 7 days of storage, listed as β-form Crystals): 99.71% | HPLC purity change / degradation due to storage ([1]; 25° C.): the purity was not decreased | Appearance verification [1, 9]: No changes were found | Powder X-ray diffraction pattern after storage [1, 9]: did not change | Weight change ([1]; all of the moisture adjustment conditions, 25° C., 7 days): Significant weight change was not found | HPLC purity (%) ([1]; before storage, listed as β-form Crystals): 99.72% | Weight change (%) ([1]; ca. 0% R.H. (silica gel), 25° C., 7 days, listed as β-form Crystals): 0.01% | HPLC purity (%) ([1]; ca. 0% R.H., 25° C., after 7 days of storage, listed as β-form Crystals): 99.73% | Hygroscopic property ([1]; 25° C.): no hygroscopic property | Hygroscopic property ([4]; 25° C., humidity range of from 5 to 95%): not found
